The values below come from the METLIN SMRT retention time set (Domingo-Almenara et al. 2019).

A short description of this data set: gradient 5% acetonitrile 3 min, to 50% in 2 min, to 85% in 15 min, held 3 min, 100 µL/min. The following applies: column: Zorbax Extend-C18 2.1 x 50 mm; eluents: water / acetonitrile, 0.1% formic acid. In short, it runs like this:
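Mixtures of ~100 pure standards were chromatographed on a Zorbax Extend-C18 column (2.1 × 50 mm, 1.8 μm) at 100 μL/min using water and acetonitrile, each with 0.1% formic acid. Detection used a quadrupole time-of-flight mass spectrometer in positive and negative ionization mode, and data collection spanned 3 months. Retention time was obtained from adduct peaks picked computationally and each checked manually.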
As for `Cc1ccc(C)c(NC(=O)N2CCc3nc(-c4ccc(F)cc4)ncc3C2)c1`, the RP-LC retention time worked out at 987 s.
With `COc1cccc(-c2noc(NC3CC3)n2)c1OC` the figure was 752 s.
The result for `CC(C)c1cccc(NC(=O)c2nc(N3CCSCC3)c3cnn(C)c3n2)c1` reads 1040 s.
The result for `O=C(CCc1c(-c2ccccc2)nc2ccccn12)Nc1ccc(Br)cc1` reads 725 s; that for `NC(=O)C1CCN(c2ncnc3c2c(-c2ccccc2)cn3-c2cccc(Cl)c2)CC1`, 790 s.
Take `CCCNC(=O)C1CCCN(C(=O)c2[nH]c(C)c(C(=O)OC)c2C)C1` (stereo not drawn): the RP-LC retention time amounted to 668 s.
With `Cc1cc(C(=O)Nc2sc(C)c(C)c2C#N)on1` the figure was 786 s; with `Cc1cccc(-n2c(=O)c3c(cc(C)n3C)n(CC(=O)Nc3ccc(C)c(F)c3)c2=O)c1`, 866 s.
The molecule `O=C(Cc1cccc(F)c1)N1CCN(C(=O)c2cc(-c3cccnc3)n[nH]2)CC1` gave an RP-LC retention time of 847 s.
The result for `O=C(NCCc1csc(C2CCN(C(=O)C3CCCCC3)CC2)n1)C1CCC1` reads 720 s.
With `Cc1ccsc1C(=O)NCCn1c(=O)n(Cc2ccccc2)c2cccnc21` the figure was 806 s; with `Cc1cc(C)n(-c2ccnc(NCC(C)C)n2)n1`, 747 s; with `COc1cccc(S(=O)(=O)N2CCC3(CC2)NCCCN=C3NC2CCCCC2)c1`, 759 s.
Regarding `CC(C)CN1CCN(C(=O)c2cn(-c3cc(N4CCC(C)CC4)ncn3)cn2)CC1`, the RP-LC retention time came to 663 s.
With `CCc1nn2c(nnc3c(=O)n(CCc4c[nH]c5ccccc45)ccc32)c1-c1ccccc1` the figure was 1010 s; with `Cc1cccc(N2CCN(S(=O)(=O)c3ccc(-c4nnc(C5CC5)o4)o3)CC2)c1`, 1020 s; with `COc1ccc(N2CCN(c3cc(SCC(=O)NCc4ccc(F)cc4)ncn3)CC2)cc1`, 830 s.
With `CCCNC(=O)C1CCN(c2ccc(SCC(=O)Nc3ccc(Br)cc3)nn2)CC1` the figure was 689 s; with `Cc1nn(-c2ccccc2)c2c1N(CC(=O)Nc1ccc(F)cc1F)C(=O)CS2`, 852 s; with `CCn1cc(-c2nc(C)c(C(=O)Nc3cc(F)ccc3F)s2)c2cccnc21`, 1070 s.
In turn, `O=C(CCc1csc(NC(=O)c2ccc(F)cc2)n1)NCCn1ncccc1=O` came in with an RP-LC retention time of 624 s.
Take `c1cc(-c2nc(-c3ccc4c(c3)nnn4CCN3CCCCC3)no2)ccn1`: the RP-LC retention time worked out at 599 s.
With `CCc1nnc(-c2cc(NC(=O)c3ccc4nc[nH]c4c3)c(C)s2)o1` the figure was 632 s.
For `CO[C@@H]1C=C2CCN(C)[C@@H]2C2c3cc4c(cc3C(=O)O[C@@H]21)OCO4` (stereo partly drawn), the RP-LC retention time worked out at 604 s.
The result for `O=c1n(CCOc2ccc(F)cc2)nc2ccc(S(=O)(=O)N3CCCCC3)cn12` reads 938 s; that for `CCC(=O)N1c2ccc(S(=O)(=O)N3CCCCC3)cc2CC1C(=O)NC1CCCC1` (stereo not drawn), 883 s; that for `O=C(c1ccc(F)c(F)c1)N1CCN(c2cc(-c3ccc(F)cc3)[nH]n2)CC1`, 837 s.
The result for `COC(=O)c1ccc(NC(=O)c2[nH]c3cc(C)sc3c2CN(C)C)cc1` reads 670 s; that for `Cc1cccc(CN2C[C@@H]3C(=O)N(C)C(=O)[C@@H]3C2)c1`, 583 s; that for `O=C(Nc1ccccc1)N1CCC(CCOc2cccnc2)CC1`, 638 s.
As for `CC1CCCN(CC2CCN(S(=O)(=O)c3cccc(Cl)c3)CC2)C1` (stereo not drawn), the RP-LC retention time is 696 s.
The result for `CN(C)C(=O)c1cc2c(s1)CCC(C(=O)NCCc1ccccc1)C2` (stereo not drawn) reads 710 s; that for `CCOCCCNC(=O)C1c2ccccc2C(=O)N(C2CCCC2)C1c1cccs1` (stereo not drawn), 882 s.
The result for `CC1(C(=O)NCc2ccccc2)CN(S(C)(=O)=O)CC(=O)N1C1CC1` (stereo not drawn) reads 662 s; that for `Cc1cccc(NC(=O)N2CCc3[nH]cnc3C2c2ccncc2)c1C` (stereo not drawn), 546 s.
With `COc1ccc(-c2noc(C3CCCN3C(=O)Cc3ccsc3)n2)cc1` (stereo not drawn) the figure was 928 s; with `c1ccc(OCCSc2nc3ccccc3[nH]2)cc1`, 625 s; with `CCOC(=O)c1[nH]c(C)c(C(=O)CN(CC2CCCO2)C(=O)c2ccc(F)cc2)c1C` (stereo not drawn), 800 s.
`Cn1c(=O)n(C)c2cc(S(=O)(=O)c3ccccc3)c(NC(=O)c3ccccc3F)cc21` gave an RP-LC retention time of 878 s.
`O=C(Nc1ccc([N+](=O)[O-])cc1Cl)c1cc(Cl)ccc1O`: the RP-LC retention time was found to be 1130 s.
With `CCn1c(=O)sc2cc(S(=O)(=O)N3CCC(C(=O)N4CCc5ccccc5C4)CC3)ccc21` the figure was 944 s; with `CCOc1ccc(C(=O)N2CCCC2c2nc(-c3ccc(OC)c(OC)c3)no2)cc1` (stereo not drawn), 927 s; with `Cc1ccc(-c2nc3ccc(C)cn3c2Nc2ccc3c(c2)OCCO3)cc1`, 715 s.
`Cc1ccc(N2CC(C(=O)NCCn3cnc(-c4ccccc4)cc3=O)CC2=O)cc1C` (stereo not drawn) displayed an RP-LC retention time of 689 s.
With `O=C(c1cccc(F)c1)N1CCC(n2c(-c3ccoc3)nc3cccnc32)C1` (stereo not drawn) the figure was 735 s; with `O=C(NCCCN1CCCC1=O)c1cccc(N2CCNC(c3ccccc3)C2)n1` (stereo not drawn), 590 s; with `CCOc1ccccc1N1CCN(S(=O)(=O)c2nn(CC)cc2C(=O)NCC(=O)OC)CC1`, 896 s.
Consider `CCN(Cc1ccncc1)C1CN(C(=O)c2ccc3ncccc3c2)C1`, for which the RP-LC retention time was determined as 560 s.
The result for `COc1ccc(S(=O)(=O)N2CCC(C(=O)NCCc3csc(-c4cccs4)n3)CC2)cc1` reads 863 s; that for `Cc1[nH]c(/C=C2\C(=O)Nc3ccccc32)c(C)c1CCC(=O)O`, 820 s; that for `CC(=O)c1cccc(NC(=O)CCc2c(C)nn(-c3cc(N(C)C)ncn3)c2C)c1`, 731 s.
With `Cc1ccc(CNC(=O)Cn2nc(N3CCCC(C)C3)c3ccccc3c2=O)cc1` (stereo not drawn) the figure was 1110 s.
With `COc1ccc(-c2nnc(COc3ccc(NC(=O)c4ccc(Br)o4)cc3)o2)cc1` the figure was 934 s.
The molecule `COc1ccc(-c2noc(CNC(=O)Nc3ccc(Cl)cc3)n2)cc1OC` gave an RP-LC retention time of 852 s.
On to `COc1ccc(Cn2nc3c(S(=O)(=O)N4CCc5ccccc5C4)cccn3c2=O)cc1F`, for which the RP-LC retention time amounted to 945 s.
With `Cc1noc(C)c1-c1ccc(S(=O)(=O)Nc2ccc(C(C)C)cc2)cc1` the figure was 1060 s; with `O=C(NCc1ccco1)c1ccc2c(c1)CCCN2S(=O)(=O)c1ccc(Cl)cc1`, 999 s.
With `O=C(c1ccc(Br)o1)N1CCN(c2ccc(-c3noc(C4CC4)n3)cc2)CC1` the figure was 1020 s; with `CCOc1cccc(-c2noc(Cn3cnc4c(nnn4-c4ccccc4OC)c3=O)n2)c1`, 979 s.
The result for `COc1cccc(CNC2CCN(c3ccc(C(=O)NC4CC4)cn3)C2)c1OC` (stereo not drawn) reads 562 s; that for `CCOc1ccc(-c2ccc(=O)n(CCc3nc(-c4ccccc4)no3)n2)cc1`, 1000 s; that for `Cc1ccc(C)c(NC(=O)c2cc(C)n3nc(C)cc3n2)c1`, 1090 s.
As for `O=C(Cc1cccs1)Nc1ccc2c(N3CCCCC3)ncnc2c1`, the RP-LC retention time worked out at 594 s.
In the case of `Cc1nn(C)c(C)c1CNC(=O)C1CCN(c2nnc3ccccn23)CC1`, the RP-LC retention time was 515 s.
For `CCCCNC(=O)C1CCCN(c2ccc(=O)n(-c3cccc(Cl)c3)n2)C1` (stereo not drawn), the RP-LC retention time was determined as 840 s.
With `Cc1cc(C)cc(NC(=O)N2CC(c3nc(C(C)C)nn3C)C2)c1` the figure was 718 s.
The result for `Cc1ccc(NC(=O)c2ccc(CN3CCN(C)CC3)cc2)cc1Nc1nccc(-c2cccnc2)n1` reads 640 s; that for `Cc1ccc2[nH]cc(CCNC(=O)COc3ccccc3)c2c1`, 904 s; that for `CCn1cc(-c2nc(C(=O)Nc3ccc(OC)c(Cl)c3)cs2)c2cccnc21`, 1110 s.
As to `COc1ccc(CNC(=O)Cn2c(C(F)(F)F)nc3cc4c(cc32)OCCO4)cc1`, the RP-LC retention time came to 813 s.
With `Cc1cc(C)c(S(=O)(=O)Nc2ccc(-c3ccc4nnc(C)n4n3)cc2)cc1C` the figure was 741 s; with `Cc1ccc(C)c(CNC(=O)c2cnc(-c3ccccc3)nc2-c2ccncc2)c1`, 913 s.
With `O=c1ccc(-c2nc(-c3ccc(Br)cc3)no2)cn1Cc1cc(=O)n2ccccc2n1` the figure was 918 s; with `O=C(CCN1C(=O)C2C3C=CC(C3)C2C1=O)N1CCN(c2ccccn2)CC1` (stereo not drawn), 572 s; with `COc1ccc(C)cc1NC(=O)N1C[C@@H]2C[C@H]1C[C@@H]2NC(=O)c1cccs1`, 819 s.
Molecule `C=CCSc1nc2ccccc2c2nc(-c3ccncc3)nn12` yielded an RP-LC retention time of 1150 s.
The result for `COc1cccc(N2CCN(S(=O)(=O)c3cc(-c4csc(C)n4)ccc3C)CC2)c1` reads 1190 s.
`CCCCN(C)C(=O)c1ccc2c(c1)Sc1ncccc1C(=O)N2C(C)C`: the RP-LC retention time was 804 s.
